“Also recorded” adds a separate entry of the source.
Key:
[1] = system: mice with ulcerative colitis in TNBS modeling; assay: Treatment of TNBS-induced ulcerative colitis (IBD) in mice, Example 2; type: in vivo, BALB/c mice
Procedure: Experimental Animal: Male BALB/c mice (7-8 weeks old, 25±5 g) were obtained from Experimental Animal Center of Academy of Military Medical Sciences (Beijing, China). Mice were provided sterile food and water, and 12 h light/12 h dark cycle. All animal experiments were approved by the Institutional Animal Care and Use Committee at Academy of Military Medical Sciences.
Reagents: 2,4,6-trinitrobenzene sulfonic acid (TNBS, were purchased from Sigma Chemical Co.), CZLC331 (prepared in Example 1), RT PCR kit (ID isFSK100, purchased from Toyobo Biotechnology Co., Ltd.).
Model preparation: Mice (hunger for 36 h) were anesthetized with isoflurane using anesthesia machine. To induce IBD, 150 mg/kg of TNBS (Sigma-Aldrich) in 38% ethanol (to break the intestinal epithelial barrier) was administered by the mouse gavage needle equipped with a 1 ml syringe, what the diameter of silicone tube is 2. 0 mm and the length is about 10 cm, the gavage needle was advanced into the rectum until the tip was 4 cm proximal to the anal verge. The total injection volume was 100 μl.
Experimental animal groups: model group, treatment group and control group (n=8). The control mice received 38% ethanol alone by using the same method described above, and normal feeding two days. The treatment group: BALB/c mice were treated therapeutically with CBLB502 (3.2 mg/kg) at 0.5 h after TNBS administration. At the same time, BALB/c mice were treated therapeutically with CBLB502 (0.2-6.4 mg/kg) from 0.5 h to 8 h after TNBS administration, and normal feeding two days. The mice of model group were normal feeding two days after TNBS administration.
Mice were monitored for the appearance of diarrhea, changes of body weight, and overall mortality. At the end of the experiment after TNBS administration two days, surviving mice were killed, blood samples were collected by cardiac puncture, and a 7-cm segment of the colon was excised for macroscopic (FIG. 1, FIG. 4 left, and FIG. 5) and microscopic damage evaluation (FIG. 2, FIG. 4 right, and FIG. 6). And the end of the colon after washing using physiological saline was kept at −80° C. frozen for follow-up testing.
2. Histological examination: The colonic samples were fixed in 4% buffered formalin overnight and then transferred to 70% ethanol, embedded in paraffin for sectioning, and then stained with hematoxylin and eosin (H&E) to examine the histological differences.

TLR family = assay: Expression of TLR family in colon by RT-PCR after treatment in TNBS modeling; type: in vivo, BALB/c mice; conditions: 3.2 mg/kg 4 h after TNBS
Text: The colon samples were removed at the indicated times, washed with phosphate-buffered saline (pH 7.2), and cut in small pieces. Total RNA of colon samples what were control group, modeling group and treatment group were extracted by Total RNA kits II (Omega, Japan) according to the manufacturers' instructions, and then reverse-transcribed by the Reverse Transcription System (Sigma, USA). Subsequently, the TLRs and β-actin were amplified by PCR using the following primers (Table 1). The reaction system of PCR was 500, Ex Taq 0.250, 10× buffer 5 μl, dNTP 5 μl, template 2 μl, the upstream and downstream primers 1 μl, ddH2O 35.75 μl. The reaction condition of PCR is 95° C. 5 min, 95° C. 45 sec, 62° C. 45 sec, 72° C. 1 min, total 25 cycles, and then 72° C. 5 min. PCR products were identified on 2% agarose-gel electrophoresis followed by image analysis software.

[2] = system: mice with ulcerative colitis in TNBS modeling; assay: Prevention of TNBS-induced IBD in mice, Example 3; type: in vivo, BALB/c mice
Procedure: Experimental Animals: the same as in Example 2.
Reagents: the same as in Example 2.
Model preparation: the same as in Example 2.
Experimental animal groups: model group, prevention group and control group (n=8). The prevention group: BALB/c mice were treated therapeutically with CBLB502 (3.2 mg/kg) before TNBS administration, and then the mice were given TNBS and normal feeding two days. The model group was normal feeding two days after TNBS administration. The control mice received 38% ethanol alone by using the same method described above, and normal feeding.
Test contents and test methods: the same as in Example 2.

[3] = statement, no test described; cited from earlier work
IBD patients = conditions: cited from earlier work
[4] = given 0.5 h before TNBS modeling, two days, versus model group

Compound	clinical signs: blood in the stool, feeding/water intake, activity ([1]; 0.2-6.4 mg/kg intraperitoneal, 0.5 h to 8 h after TNBS, two days, versus model group)	colon appearance: congestion, edema, hemorrhage, ulcers ([1]; 0.2-6.4 mg/kg, 0.5 h to 8 h after TNBS, two days, versus model group)	colonic mucosa HE staining: cell structure, goblet cells, lymphocyte and neutrophil infiltration ([1]; 0.2-6.4 mg/kg, 0.5 h to 8 h after TNBS, versus model group)	cure rate ([1]; TNBS mice, intraperitoneal CZLC331) [%]	onset (time after administration to effect) ([1]; examples 2 and 3, all animals) [h]	effective rate ([1]; improvement of feeding, activity and blood in stool, all animals of treatment group and prevention group (examples 2 and 3)) [%]	effective rate of recovered colon mucosa ([1]; treatment group) [%]	expression of TLR6 (TLR family; raised in model group)	expression of TLR7 (TLR family; raised in model group)	expression of TLR8 (TLR family; raised in model group)	expression of TLR family (TLR family; versus model group)	clinical signs: blood in the stool, eat less, move less [2, 4]	colon: congestion, edema, hemorrhage [2, 4]	prevention of IBD (overall) ([2]; given before TNBS modeling)	side effects [3]	toxicity [3]	side effects (IBD patients; after taking the drug)	effective rate (IBD patients; clinical drug)	markedly effective rate (IBD patients; clinical drug) [%]	onset (time until symptoms improved) (IBD patients; clinical)
CZLC331: Salmonella flagellin derivative, SEQ ID NO: 3: Tat protein transduction peptide plus flagellin residues 1-176 and 402-505 joined by flexible linker; 331 amino acids	feeding/water intake of mice return to normal, the activities increased significantly and reduce blood in the stool; also recorded: reduced	significantly reduced; also recorded: began reduce	significantly reduced; also recorded: structures of cells were arranged in neat, a small number of goblet cells and lymphocyte and neutrophil infiltration were disappeared; also recorded: well results for treating	70	24	100	75	no significant differences	no significant differences	would change	significant differences with the model group	reduced	began reduce	protective effects	no significant side effects	non-toxic	–	–	–	–
O=C(O)c1cc(/N=N/c2ccc(S(=O)(=O)Nc3ccccn3)cc2)ccc1O [sulfasalazine]	–	–	–	–	–	–	–	–	–	–	–	–	–	–	–	–	nausea, rash, neutropenia	about 90%	50	about two
